A short description of the data set: MALDI-TOF screening of Ni^2+ dependent hydrolysis in a combinatorial peptide library. Conditions: CH3CO-Gly-Ala-Thr-X-His-Z-Lys-Phe-Leu-NH2 library, Ni^2+ 2 mM, pH 8.2, 10 mM Tris, score=24/tm. Format: physicochemical. An outline of the steps:
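MALDI-TOF read-out: appearance of Ser/Thr-X-His-Z-Lys-Phe-Leu-NH2 product signals, plus loss of substrate signals, checked by eye at 2, 4, 6, 8 h. Conditions: 1 mM peptide mixture, 2 mM Ni2+, 10 mM Tris pH 8.2, 37 or 45 °C.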

For the substance Ac-GATPHVKFL-NH2 [TPHV], the “hydrolysis score from MALDI-TOF screening” value (from here on “hydrolysis score”) (45° C.) was 0 (a score of 0 if no trace of the product of hydrolysis was seen after 8 hours of incubation). Still for that read-out and setting: with Ac-GATPHWKFL-NH2 [TPHW] the figure was 0 (a score of 0 if no trace of the product of hydrolysis was seen after 8 hours of incubation); with Ac-GATPHYKFL-NH2 [TPHY], 0 (a score of 0 if no trace of the product of hydrolysis was seen after 8 hours of incubation). For Ac-GATQHAKFL-NH2 [TQHA], the “hydrolysis score” value runs as follows: (37° C.) 0 (a score of 0 if no trace of the product of hydrolysis was seen after 8 hours of incubation); (45° C.) 0 (a score of 0 if no trace of the product of hydrolysis was seen after 8 hours of incubation). Take Ac-GATQHDKFL-NH2 [TQHD]: the “hydrolysis score” value was 0 (a score of 0 if no trace of the product of hydrolysis was seen after 8 hours of incubation) (37° C.) and 0 (a score of 0 if no trace of the product of hydrolysis was seen after 8 hours of incubation) (45° C.). For the substance Ac-GATQHEKFL-NH2 [TQHE], the “hydrolysis score” value by setting is: (37° C.) 0 (a score of 0 if no trace of the product of hydrolysis was seen after 8 hours of incubation); (45° C.) 0 (a score of 0 if no trace of the product of hydrolysis was seen after 8 hours of incubation). Ac-GATQHFKFL-NH2 [TQHF]: the “hydrolysis score” value (37° C.) was 0 (a score of 0 if no trace of the product of hydrolysis was seen after 8 hours of incubation) and the “hydrolysis score” value (45° C.) is reported as 0 (a score of 0 if no trace of the product of hydrolysis was seen after 8 hours of incubation). With Ac-GATQHGKFL-NH2 [TQHG], the “hydrolysis score” value runs as follows: (37° C.) 0 (a score of 0 if no trace of the product of hydrolysis was seen after 8 hours of incubation); (45° C.) 0 (a score of 0 if no trace of the product of hydrolysis was seen after 8 hours of incubation). On to Ac-GATQHHKFL-NH2 [TQHH], for which the “hydrolysis score” value was 0 (a score of 0 if no trace of the product of hydrolysis was seen after 8 hours of incubation) (37° C.) and 0 (a score of 0 if no trace of the product of hydrolysis was seen after 8 hours of incubation) (45° C.). Take Ac-GATQHIKFL-NH2 [TQHI]: the “hydrolysis score” value by setting is: (37° C.) 0 (a score of 0 if no trace of the product of hydrolysis was seen after 8 hours of incubation); (45° C.) 3 (a score of 3 for detection at 8 hours).

As for Ac-GATQHKKFL-NH2 [TQHK], the “hydrolysis score” value was 0 (a score of 0 if no trace of the product of hydrolysis was seen after 8 hours of incubation) (37° C.) and 3 (a score of 3 for detection at 8 hours) (45° C.). In the same order, the values of Ac-GATQHLKFL-NH2 [TQHL] are 0 (a score of 0 if no trace of the product of hydrolysis was seen after 8 hours of incubation) and 3 (a score of 3 for detection at 8 hours).

Turning to Ac-GATQHMKFL-NH2 [TQHM], the “hydrolysis score” value is listed as 0 (a score of 0 if no trace of the product of hydrolysis was seen after 8 hours of incubation) (37° C.) and 0 (a score of 0 if no trace of the product of hydrolysis was seen after 8 hours of incubation) (45° C.). On to Ac-GATQHNKFL-NH2 [TQHN], for which the “hydrolysis score” value reads like this: (37° C.) 0 (a score of 0 if no trace of the product of hydrolysis was seen after 8 hours of incubation); (45° C.) 0 (a score of 0 if no trace of the product of hydrolysis was seen after 8 hours of incubation).

Take Ac-GATQHPKFL-NH2 [TQHP]: the “hydrolysis score” value is given as 0 (a score of 0 if no trace of the product of hydrolysis was seen after 8 hours of incubation) (37° C.) and 0 (a score of 0 if no trace of the product of hydrolysis was seen after 8 hours of incubation) (45° C.).

As for Ac-GATQHQKFL-NH2 [TQHQ], the “hydrolysis score” value (37° C.) was 0 (a score of 0 if no trace of the product of hydrolysis was seen after 8 hours of incubation) and the “hydrolysis score” value (45° C.) is on record as 0 (a score of 0 if no trace of the product of hydrolysis was seen after 8 hours of incubation).

Ac-GATQHRKFL-NH2 [TQHR]: the “hydrolysis score” value reads like this: (37° C.) 3 (a score of 3 for detection at 8 hours); (45° C.) 4 (a score of 4 for detection at 6 hours). Take Ac-GATQHSKFL-NH2 [TQHS]: the “hydrolysis score” value is recorded as 0 (a score of 0 if no trace of the product of hydrolysis was seen after 8 hours of incubation) (37° C.) and 0 (a score of 0 if no trace of the product of hydrolysis was seen after 8 hours of incubation) (45° C.). On to Ac-GATQHTKFL-NH2 [TQHT], for which the “hydrolysis score” value is given as 0 (a score of 0 if no trace of the product of hydrolysis was seen after 8 hours of incubation) (37° C.) and 0 (a score of 0 if no trace of the product of hydrolysis was seen after 8 hours of incubation) (45° C.).

Take Ac-GATQHVKFL-NH2 [TQHV]: the “hydrolysis score” value reads like this: (37° C.) 0 (a score of 0 if no trace of the product of hydrolysis was seen after 8 hours of incubation); (45° C.) 0 (a score of 0 if no trace of the product of hydrolysis was seen after 8 hours of incubation). For Ac-GATQHWKFL-NH2 [TQHW], the “hydrolysis score” value is on record as 3 (a score of 3 for detection at 8 hours) (37° C.) and 4 (a score of 4 for detection at 6 hours) (45° C.). Take Ac-GATQHYKFL-NH2 [TQHY]: the “hydrolysis score” value is, setting by setting: (37° C.) 0 (a score of 0 if no trace of the product of hydrolysis was seen after 8 hours of incubation); (45° C.) 0 (a score of 0 if no trace of the product of hydrolysis was seen after 8 hours of incubation).

For Ac-GATRHAKFL-NH2 [TRHA], the “hydrolysis score” value is, setting by setting: (37° C.) 0 (a score of 0 if no trace of the product of hydrolysis was seen after 8 hours of incubation); (45° C.) 3 (a score of 3 for detection at 8 hours). For Ac-GATRHDKFL-NH2 [TRHD], in that order: 0 (a score of 0 if no trace of the product of hydrolysis was seen after 8 hours of incubation) and 0 (a score of 0 if no trace of the product of hydrolysis was seen after 8 hours of incubation).

Turning to Ac-GATRHEKFL-NH2 [TRHE], the “hydrolysis score” value was 0 (a score of 0 if no trace of the product of hydrolysis was seen after 8 hours of incubation) (37° C.) and 0 (a score of 0 if no trace of the product of hydrolysis was seen after 8 hours of incubation) (45° C.). For the substance Ac-GATRHFKFL-NH2 [TRHF], the “hydrolysis score” value is given as 3 (a score of 3 for detection at 8 hours) (37° C.) and 4 (a score of 4 for detection at 6 hours) (45° C.). In the same order, the values of Ac-GATRHGKFL-NH2 [TRHG] are 0 (a score of 0 if no trace of the product of hydrolysis was seen after 8 hours of incubation) and 0 (a score of 0 if no trace of the product of hydrolysis was seen after 8 hours of incubation). For Ac-GATRHHKFL-NH2 [TRHH], in that order: 3 (a score of 3 for detection at 8 hours) and 4 (a score of 4 for detection at 6 hours). Turning to Ac-GATRHIKFL-NH2 [TRHI], the “hydrolysis score” value (37° C.) is on record as 6 (a score of 6 for detection at 4 hours) and the “hydrolysis score” value (45° C.) was 12 (a score of 12, if it was seen to be partially hydrolysed at 2 hours). For the substance Ac-GATRHKKFL-NH2 [TRHK], the “hydrolysis score” value (37° C.) is given as 6 (a score of 6 for detection at 4 hours) and the “hydrolysis score” value (45° C.) is given as 12 (a score of 12, if it was seen to be partially hydrolysed at 2 hours). As for Ac-GATRHLKFL-NH2 [TRHL], the “hydrolysis score” value (37° C.) was 6 (a score of 6 for detection at 4 hours) and the “hydrolysis score” value (45° C.) was 12 (a score of 12, if it was seen to be partially hydrolysed at 2 hours). As for Ac-GATRHMKFL-NH2 [TRHM], the “hydrolysis score” value by setting is: (37° C.) 3 (a score of 3 for detection at 8 hours); (45° C.) 4 (a score of 4 for detection at 6 hours). For Ac-GATRHNKFL-NH2 [TRHN], in that order: 0 (a score of 0 if no trace of the product of hydrolysis was seen after 8 hours of incubation) and 0 (a score of 0 if no trace of the product of hydrolysis was seen after 8 hours of incubation). Turning to Ac-GATRHPKFL-NH2 [TRHP], the “hydrolysis score” value (37° C.) was 0 (a score of 0 if no trace of the product of hydrolysis was seen after 8 hours of incubation) and the “hydrolysis score” value (45° C.) is 0 (a score of 0 if no trace of the product of hydrolysis was seen after 8 hours of incubation). With Ac-GATRHQKFL-NH2 [TRHQ], the “hydrolysis score” value is reported as 0 (a score of 0 if no trace of the product of hydrolysis was seen after 8 hours of incubation) (37° C.) and 0 (a score of 0 if no trace of the product of hydrolysis was seen after 8 hours of incubation) (45° C.). For Ac-GATRHRKFL-NH2 [TRHR], the “hydrolysis score” value is recorded as 4 (a score of 4 for detection at 6 hours) (37° C.) and 6 (a score of 6 for detection at 4 hours) (45° C.). For Ac-GATRHSKFL-NH2 [TRHS], in that order: 0 (a score of 0 if no trace of the product of hydrolysis was seen after 8 hours of incubation) and 0 (a score of 0 if no trace of the product of hydrolysis was seen after 8 hours of incubation).

These data come from patent publication US8969516B2, “Method of hydrolysis of peptide bond” (priority 2006, dated 2015).
